Results reported in patent US4517004A, “Aryl phosphoric triamide and aryl phosphorodiamidate urease and nitrification inhibitors and urease and nitrification inhibited urea and reduced nitrogen based fertilizer compositions” (Allied Corporation, priority 1983, dated 1985).
Read-outs that look alike come from different tables or passages of the source.

Key:
[1] = test system: urease in soil (Cazenovia silt loam; Plano silt loam); test: Urease inhibition efficacy test in soil (urea remaining after incubation); type: biochemical; conditions: 40 micrograms compound per gram soil, 42.8 mg urea per 20 g soil, incubated 3 days at 25° C., triplicate; for % Inhibition 40 Micrograms per gram soil, Cazenovia pH 7.2: New York soil (Cazenovia silt loam)
Method: Efficacy tests were conducted to evaluate the efficacy of certain representative phosphoric triamide compounds of this invention as urease inhibitors in comparison with the known compound 4-aminophenylphosphoric triamide. The inhibition tests were run in a New York soil (Cazenovia silt loam, pH 7.0), or in Wisconsin soil (Plano silt loam). Evaluations (run in triplicate) consisted of applying 800 micrograms of the test compound in 5 mL of water and 42.8 mg of urea in 1 mL of water to 20 g of air-dry soil in a glass bottle. The bottle was capped with perforated aluminum foil and incubated at 25° C. for three days prior to extraction with 100 mL of a 2M KCl solution containing 0.5 mg of phenylmercuric acetate. The extracts were then analyzed for remaining urea using an autoanalyzer. Percent inhibition was calculated as [formula] where A is urea recovered from unincubated sample (urea added to soil and immediately extracted); B is urea recovered from inhibited sample; and C is urea recovered from the control (uninhibited sample).

[2] = molecular target: T1, jack bean urease (Sigma, Type IX) (Canavalia ensiformis, UniProt P07374); test: Efficacy test with commercial purified jack bean urease in homogeneous solution (modified Bremner procedure); type: biochemical; conditions: read-out: % Inhibition 10^-6 M
T1 construct: purchased Sigma Type IX
T1 sequence (P07374 whole entry, looked up): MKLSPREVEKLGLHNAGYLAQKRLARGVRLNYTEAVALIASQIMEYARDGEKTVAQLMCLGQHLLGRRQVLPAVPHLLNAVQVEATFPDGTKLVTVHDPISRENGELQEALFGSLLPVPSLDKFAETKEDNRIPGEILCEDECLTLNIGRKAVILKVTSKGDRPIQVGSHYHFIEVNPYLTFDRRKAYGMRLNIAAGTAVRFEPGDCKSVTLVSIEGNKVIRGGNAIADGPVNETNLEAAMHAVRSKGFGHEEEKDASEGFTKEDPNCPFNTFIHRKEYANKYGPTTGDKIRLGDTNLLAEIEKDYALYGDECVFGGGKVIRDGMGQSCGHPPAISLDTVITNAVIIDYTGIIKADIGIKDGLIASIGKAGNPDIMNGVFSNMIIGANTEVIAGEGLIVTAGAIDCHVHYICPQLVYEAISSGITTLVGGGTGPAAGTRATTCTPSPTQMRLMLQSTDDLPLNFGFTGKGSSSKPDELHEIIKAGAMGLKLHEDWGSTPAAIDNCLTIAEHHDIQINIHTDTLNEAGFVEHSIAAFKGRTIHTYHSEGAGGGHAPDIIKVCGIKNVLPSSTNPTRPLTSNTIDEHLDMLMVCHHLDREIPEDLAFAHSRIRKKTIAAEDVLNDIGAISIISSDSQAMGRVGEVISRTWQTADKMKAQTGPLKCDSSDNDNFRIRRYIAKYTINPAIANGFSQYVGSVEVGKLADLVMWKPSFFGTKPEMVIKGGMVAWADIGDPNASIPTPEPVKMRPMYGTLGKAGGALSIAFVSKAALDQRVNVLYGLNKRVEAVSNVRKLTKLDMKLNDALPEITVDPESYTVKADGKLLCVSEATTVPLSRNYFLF
Method: Efficacy tests were also conducted with jack bean urease. The procedure of Bremner (see L. A. Douglas, J. M. Bremner, Soil Biol. Biochem., 3, 859-62 (1970 and references therein) was modified by replacing the soil as the source of urease with commercial purified jack bean urease (Sigma, Type IX). The incubation then proceeds in homogeneous solution. The results are generally parallel to those obtained in the soil test of Example IV and are given in Table II.

soil nitrification = test: Nitrification inhibition efficacy test in Cazenovia silt loam soil (nitrate formed from diammonium phosphate); conditions: Cazenovia silt loam pH 7.3
Method: Efficacy tests were conducted to evaluate the efficacy of certain representative phosphoric triamide compounds as nitrification inhibitors. All compounds were evaluated in Cazenovia silt loam soil (pH 7.3). The evaluations consisted of applying either simultaneously (to) or after 14 days (t14) a solution of 6.00 mg (300 μg/g soil) at diammonium phosphate in 1 mL of water to triplicate 20 g samples of air dry soil contained in 250 mL square glass bottles that had been treated with a solution of either 0 or 0.800 mg (40 μg/g soil) of the test compound in 5 mL of water. Each bottle was capped with perforated aluminum foil, incubated for 14 days at 25° C. after diammonium phosphate application, and then extracted with 100 mL of 2M potassium chloride containing 0.5 mg (5 mg/L) of phenylmercuric acetate. Each extract was allowed to settle, and an aliquot was frozen and then analyzed for nitrate using an autoanalyzer. The percent inhibition obtained during the incubation was calculated by the formula: [formula] where A is the nitrate recovered from unincubated soil before diammonium phosphate addition; B is nitrate recovered from uninhibited soil; and C is nitrate recovered from inhibited soil.

[3] = compound at 10^-6 M, purified jack bean urease, homogeneous solution

SMILES	% Inhibition 40 Micrograms per gram soil, Cazenovia pH 7.2 [1] [%]	inhibition at 1 µM [2] [%]	inhibition at 1 µM [2, 3] [%]	% Inhibition 40 Micrograms per gram soil, Wisconsin pH 5.4 ([1]; Wisconsin soil (Plano silt loam), pH 5.4) [%]	% Inhibition at 40 μg per gram of soil, t14 (soil nitrification; diammonium phosphate (300 μg/g soil) applied 14 days after compound (t14), 14 days at 25° C. after application) [%]	% Inhibition at 40 μg per gram of soil, t0 (soil nitrification; diammonium phosphate (300 μg/g soil) applied simultaneously with compound (t0), 14 days at 25° C.) [%]
Nc1ccc(NP(N)(N)=O)cc1 [4-Aminophenylphosphoric triamide, 4-aminophenylphosphoric triamide, reference compound]	55	0				
Nc1ccc(OP(N)(N)=O)cc1 [4-Aminophenylphosphorodiamidate, 4-aminophenylphosphorodiamidate]	91		80			
CN(c1ccc(O)cc1)P(N)(N)=O [N-(Methyl)-N-(4-hydroxyphenyl) Phosphoric triamide]	87			33		
CC(C)(C)c1cc(OP(N)(N)=O)ccc1O [Phosphorodiamidic Acid 3-(1',1'-dimethylethyl)-4-hydroxyphenyl Ester]	87		29		0	39
